In patent US7981903B2, “2-[2-{phenylamino}-1H-pyrrolo[2,3-D]pyrimidin-4-yl)amino] benzamide derivatives as IGF-1R inhibitors for the treatment of cancer” (GlaxoSmithKline LLC, priority 2007, dated 2011):
pIC50: −log10 of the molar value. Where “and” joins values, the source holds several entries; their conditions need not be identical. Identical values can stand only once.

Legend:
Type in all cases: biochemical
[1] = target: T1, human IR (hIR) (Homo sapiens, UniProt P06213); assay: TR-FRET kinase assay of purified hIR; details: activated hIR 0.5 nM, 10 μM ATP, values given as pIC50 category
T1 construct: containing amino acid residues 979-1382 of human IR; made in house; host or cells: Sf9 cells (baculovirus), same process as hIGF1R
T1 sequence (P06213 979-1382): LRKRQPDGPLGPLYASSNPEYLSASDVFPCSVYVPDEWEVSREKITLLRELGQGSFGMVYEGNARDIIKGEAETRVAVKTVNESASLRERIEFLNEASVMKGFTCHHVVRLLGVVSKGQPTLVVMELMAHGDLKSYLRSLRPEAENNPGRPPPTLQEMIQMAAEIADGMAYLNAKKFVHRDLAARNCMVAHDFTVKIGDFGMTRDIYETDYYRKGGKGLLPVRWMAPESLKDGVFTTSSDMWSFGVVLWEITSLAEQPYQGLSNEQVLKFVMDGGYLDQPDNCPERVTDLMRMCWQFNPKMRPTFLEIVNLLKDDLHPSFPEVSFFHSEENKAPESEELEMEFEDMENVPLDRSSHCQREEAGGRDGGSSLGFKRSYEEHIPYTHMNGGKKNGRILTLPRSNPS
Protocol: (§1) Time Resolved Fluorescence Resonance Energy Transfer (TR-FRET) assays were carried out on the exemplified compounds as follows:
(§2) Purity is determined by HPLC. The calculated molecular mass of the peptide is 2216 dalton. Tyrosine phosphorylation by human IGF1R (hIGF1R) or human IR (hIR) occurs as indicated (Y*) in the peptide sequence described. Solid peptide sample is dissolved to approximately 1 mM in DMSO, aliquoted, and stored at −20° C. until use. True peptide concentration is determined by amino acid analysis.
hIR: GST-rTEV-IR(979-1382) containing amino acid residues 979-1382 of human IR (as annotated by NCBI accession number NP_000199) is expressed and purified by the same process as hIGF1R. […] Samples, in 25 mM Tris-HCl, 250 mM NaCl, 5% glycerol, 1 mM DTT, pH 7.5, are stored at −80° C. until use.
(§3) hIR: Activation of GST-rTEV-IGF-1R(957-1367) is achieved by a 5 minute incubation of hIR (2.7 μM final) with 2 mM ATP in 100 mM HEPES, 10 mM MgCL2, 0.1 mg/ml BSA, at room temperature. Autophosphorylation is stopped by addition of EDTA (to 100 mM final). Aliquoted samples are flash frozen in liquid nitrogen and stored at −80° C. until use.
(§4) Assays are performed in 384-well (Greiner, Catalog No. 784076) microtiter plates. Reaction buffer (50 mM HEPES buffer, pH 7.5; 10 mM MgCL2; 3 mM DTT; 1 mM CHAPS; 0.1 mg/ml BSA) for peptide phosphorylation (10 μl volume) contained, in final concentrations, 500 nM biotinylated peptide substrate; 10 μM ATP; and purified, activated hIGF1R or hIR (0.5 nM). Compounds, titrated in DMSO, are evaluated at eleven concentrations ranging from 50 μM to 0.2 nM. […] Reactions are incubated for 1 hour at room temperature and are stopped by a 5 μl addition of EDTA (to 33 mM). A further addition of 5 μl detection reagents (for final 7 nM Streptavidin-APC (Perkin Elmer #CR^130-150), 1 nM Europium-labeled anti-phosphotyrosine monoclonal antibody (PerkinElmer #AD0067), added in reaction buffer (without DTT), is required for signal generation. After 30 minutes, signal is read on PerkinElmer Viewlux microplate imager or Wallac Victor fluorometer.
(§5) The data for compound concentration responses were plotted as % Inhibition, calculated with the data reduction formula 100*(1-[(U1-C2)/(C1-C2)]), versus concentration of compound, where • U is the unknown value, • C1 is the average control value obtained for DMSO only, and • C2 is the average control value obtained for reactions stopped with EDTA at • t=0.
(§6) Data were fitted to the curve described by: y=((Vmax*x)/(K+x)) where • Vmax is the upper asymptote and • K is the IC50.

[2] = target: T2, human IGF1R (hIGF1R) (Homo sapiens, UniProt P08069); assay: TR-FRET kinase assay of purified hIGF1R; details: activated hIGF1R 0.5 nM, 10 μM ATP, values given as pIC50 category, read-out: IGF-1R pIC50 (converted)
T2 construct: containing amino acid residues 957-1367 of human IGF1R; made in house; host or cells: Sf9 cells (baculovirus)
T2 sequence (P08069 957-1367): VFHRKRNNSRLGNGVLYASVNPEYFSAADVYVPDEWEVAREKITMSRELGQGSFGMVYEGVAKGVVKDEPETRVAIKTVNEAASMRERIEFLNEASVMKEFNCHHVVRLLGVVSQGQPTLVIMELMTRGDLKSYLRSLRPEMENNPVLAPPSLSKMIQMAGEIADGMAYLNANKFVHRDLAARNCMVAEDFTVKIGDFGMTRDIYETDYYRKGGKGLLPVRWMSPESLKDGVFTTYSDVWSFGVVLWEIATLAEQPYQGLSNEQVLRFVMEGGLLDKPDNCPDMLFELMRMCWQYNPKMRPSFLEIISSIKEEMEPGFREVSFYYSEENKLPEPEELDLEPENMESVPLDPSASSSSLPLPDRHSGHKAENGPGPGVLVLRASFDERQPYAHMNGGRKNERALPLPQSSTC
Protocol: as §1, §2
hIGF1R: GST-rTEV-IGF-1R(957-1367) containing amino acid residues 957-1367 of human IGF1R (as annotated by National Center for Biotechnology Information (NCBI) accession number NP_000866) is purified from a baculovirus expression system in Sf9 cells using Glutathione Sepharose 4FF column chromatography followed by Sephadex-200 size exclusion column chromatography. […] Samples, in 25 mM Tris-HCl, 250 mM NaCl, 5% glycerol, 1 mM DTT, pH 7.5, are stored at −80° C. until use.
as §3, with “hIGF1R: Activation” for “hIR: Activation”, “a 4” for “a 5”, “of hIGF1R” for “of hIR”, “in 50” for “in 100”, “HEPES, 20” for “HEPES, 10”
as §4, §5, §6

[3] = target: ALK (Homo sapiens, UniProt Q9UM73); assay: ALK enzyme assay (HTRF); details: 0.25 nM ALK, 15.0 μM ATP, values given as pIC50 category
Sequence of ALK (Q9UM73 19-1620): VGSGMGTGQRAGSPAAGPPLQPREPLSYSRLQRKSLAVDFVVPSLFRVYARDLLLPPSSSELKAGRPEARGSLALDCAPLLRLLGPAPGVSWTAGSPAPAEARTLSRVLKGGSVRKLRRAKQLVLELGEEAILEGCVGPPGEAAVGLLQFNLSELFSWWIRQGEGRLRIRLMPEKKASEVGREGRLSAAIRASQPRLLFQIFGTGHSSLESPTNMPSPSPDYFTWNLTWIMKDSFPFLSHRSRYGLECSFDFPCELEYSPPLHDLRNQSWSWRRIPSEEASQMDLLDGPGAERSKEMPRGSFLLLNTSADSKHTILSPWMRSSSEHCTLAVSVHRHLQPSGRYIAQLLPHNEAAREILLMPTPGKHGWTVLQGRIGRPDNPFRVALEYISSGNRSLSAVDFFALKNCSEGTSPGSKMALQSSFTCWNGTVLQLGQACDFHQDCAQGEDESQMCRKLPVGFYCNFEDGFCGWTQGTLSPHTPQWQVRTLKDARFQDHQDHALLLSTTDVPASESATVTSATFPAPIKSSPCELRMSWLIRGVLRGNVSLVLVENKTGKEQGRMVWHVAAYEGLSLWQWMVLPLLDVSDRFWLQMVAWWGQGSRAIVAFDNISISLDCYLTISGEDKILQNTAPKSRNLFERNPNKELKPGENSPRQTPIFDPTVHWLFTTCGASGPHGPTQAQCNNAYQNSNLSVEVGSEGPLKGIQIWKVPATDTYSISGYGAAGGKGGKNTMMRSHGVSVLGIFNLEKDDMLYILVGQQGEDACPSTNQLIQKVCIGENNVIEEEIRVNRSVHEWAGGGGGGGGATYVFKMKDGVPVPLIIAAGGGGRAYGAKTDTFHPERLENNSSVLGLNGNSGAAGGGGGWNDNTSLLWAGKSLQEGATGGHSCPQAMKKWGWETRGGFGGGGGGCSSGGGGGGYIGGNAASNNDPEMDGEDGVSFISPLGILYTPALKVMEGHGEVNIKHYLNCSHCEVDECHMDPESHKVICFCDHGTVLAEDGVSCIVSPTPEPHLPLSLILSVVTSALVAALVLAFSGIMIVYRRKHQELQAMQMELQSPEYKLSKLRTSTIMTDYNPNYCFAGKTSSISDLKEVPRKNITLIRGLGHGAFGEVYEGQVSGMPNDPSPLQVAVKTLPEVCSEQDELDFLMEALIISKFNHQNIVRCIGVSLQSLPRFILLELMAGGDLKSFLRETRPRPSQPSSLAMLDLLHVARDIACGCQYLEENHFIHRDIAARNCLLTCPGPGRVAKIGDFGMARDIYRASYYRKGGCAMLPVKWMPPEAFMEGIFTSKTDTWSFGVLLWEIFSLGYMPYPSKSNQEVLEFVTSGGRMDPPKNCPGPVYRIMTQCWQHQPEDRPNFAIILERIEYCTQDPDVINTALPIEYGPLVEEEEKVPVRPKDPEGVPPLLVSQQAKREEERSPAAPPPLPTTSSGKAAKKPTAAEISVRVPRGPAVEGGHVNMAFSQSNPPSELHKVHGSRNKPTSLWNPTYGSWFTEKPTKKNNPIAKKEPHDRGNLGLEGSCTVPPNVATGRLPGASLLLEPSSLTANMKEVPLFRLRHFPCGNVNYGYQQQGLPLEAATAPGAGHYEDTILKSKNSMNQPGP
Protocol: The method measures the ability of the isolated enzyme to catalyse the transfer of the gamma-phosphate from ATP onto the tyrosine residue of a biotinylated synthetic peptide. The extent of tyrosine phosphorylation was measured using an anti-phosphotyrosine antibody, and quantified by homogenous time-resolved fluorescence (HTRF) assay purchased from CisBio (62TK0PEJ).
Reactions were performed in black 384-well polystyrene low volume plates in a final volume of 5 μl.
The reactions were then started by adding the substrate mix. The reactions were allowed to proceed for 120 minutes at 20° C. The reactions were then terminated by the addition of 5 μl HTRF detection mix to each well. The final concentrations of the detection reagents were: 50 mM HEPES (pH7.0); 0.1% BSA; 0.8 M KF; 20 mM EDTA; 1 mM CHAPS; TK-antibody Europium Cryptate; and 41 nM streptavidin-XL665. Assay plates were left unsealed, stacked and incubated at 20° for 60 minutes. Quantification of activity was achieved by counting in an Envision Counter (PerkinElmer).
Compounds under analysis were dissolved in Me2SO to 1.0 mM and serially diluted 1 to 3 with Me2SO through twelve dilutions. 0.05 μl of each concentration was transferred to the corresponding well of an assay plate. This creates a final compound concentration range from 0.00017 to 10 μM.
The data for dose responses were plotted as % Inhibition calculated with the data reduction formula 100*(1-(U1-C2)/(C1-C2)) versus concentration of compound where U is the unknown value, C1 is the average control value obtained for 1% DMSO, and C2 is the average control value obtained for 0.1 M EDTA. Data were fitted with a curve described by:
[formula] where A is the minimum y, B is the maximum y concentration [M], D is the slope factor, and x is the log10 of the compound.

Structure (SMILES) | pIC50 [1] | IC50 [2] [nM] | pIC50 [3]
CNC(=O)c1c(F)cccc1Nc1nc(Nc2cc3c(cc2OC)CCN3C(=O)[C@@H]2CCCN2C)nc2[nH]ccc12 [Example 128, 2-fluoro-N-methyl-6-[(2-{[5-(methyloxy)-1-(1-methyl-L-prolyl)-2,3-dihydro-1H-indol-6-yl]amino}-1H-pyrrolo[2,3-d]pyrimidin-4-yl)amino]benzamide] | 6.80 to 8.30 | 5.01 to 200 | 6.70 to 8.30
COc1cc2c(cc1Nc1nc(Nc3cccc(F)c3C(N)=O)c3cc[nH]c3n1)N(C(=O)CN1CCCC(O)C1)CC2 (centres unmarked) [Example 183, 2-fluoro-6-[(2-{[1-[(3-hydroxy-1-piperidinyl)acetyl]-5-(methyloxy)-2,3-dihydro-1H-indol-6-yl]amino}-1H-pyrrolo[2,3-d]pyrimidin-4-yl)amino]benzamide] | – | – | 9.00 to 9.60
CNC(=O)c1c(F)cccc1Nc1nc(Nc2cc3c(cc2OC)CCN3C(=O)CN2CCC(O)C2)nc2[nH]ccc12 (centres unmarked) [Example 182, 2-fluoro-6-[(2-{[1-[(3-hydroxy-1-pyrrolidinyl)acetyl]-5-(methyloxy)-2,3-dihydro-1H-indol-6-yl]amino}-1H-pyrrolo[2,3-d]pyrimidin-4-yl)amino]-N-methylbenzamide] | – | – | 9.00 to 9.60
COCCN(C)CC(=O)N1CCc2cc(OC)c(Nc3nc(Nc4cccc(F)c4C(N)=O)c4cc[nH]c4n3)cc21 [Example 170, 2-fluoro-6-[(2-{[1-{N-methyl-N-[2-(methyloxy)ethyl]glycyl}-5-(methyloxy)-2,3-dihydro-1H-indol-6-yl]amino}-1H-pyrrolo[2,3-d]pyrimidin-4-yl)amino]benzamide] | 9.00 to 9.60 | 0.251 to 1 | 8.40 to 8.90
COc1cc2c(cc1Nc1nc(Nc3ccccc3C(N)=O)c3cc[nH]c3n1)N(C(=O)CN(C)C)CC2 [Example 240, 2-[(2-{[1-(N,N-dimethylglycyl)-5-(methyloxy)-2,3-dihydro-1H-indol-6-yl]amino}-1H-pyrrolo[2,3-d]pyrimidin-4-yl)amino]benzamide] | – | – | 9.00 to 9.60
CNC(=O)c1c(F)cccc1Nc1nc(Nc2cc3c(cc2OC)CCN3C(=O)CN(C)CCOC)nc2[nH]ccc12 [Example 169, 2-fluoro-N-methyl-6-[(2-{[1-{N-methyl-N-[2-(methyloxy)ethyl]glycyl}-5-(methyloxy)-2,3-dihydro-1H-indol-6-yl]amino}-1H-pyrrolo[2,3-d]pyrimidin-4-yl)amino]benzamide] | 8.40 to 8.90 | 1.26 to 3.98 | 8.40 to 8.90 and 6.70 to 8.30
CNC(=O)c1c(F)cccc1Nc1nc(Nc2cc3c(cc2Cl)CCN3C(=O)CN(C)C)nc2[nH]ccc12 [Example 131, 2-[(2-{[5-chloro-1-(N,N-dimethylglycyl)-2,3-dihydro-1H-indol-6-yl]amino}-1H-pyrrolo[2,3-d]pyrimidin-4-yl)amino]-6-fluoro-N-methylbenzamide] | 8.40 to 8.90 | 1.26 to 3.98 | 8.40 to 8.90
COc1cc2c(cc1Nc1nc(Nc3cccc(F)c3C(N)=O)c3cc[nH]c3n1)N(C(=O)CN1CCC(O)C1)CC2 (centres unmarked) [Example 181, 2-fluoro-6-[(2-{[1-[(3-hydroxy-1-pyrrolidinyl)acetyl]-5-(methyloxy)-2,3-dihydro-1H-indol-6-yl]amino}-1H-pyrrolo[2,3-d]pyrimidin-4-yl)amino]benzamide] | – | – | 8.40 to 8.90
CNC(=O)c1c(F)cccc1Nc1nc(Nc2cc3c(cc2OC)CCN(CCF)C3)nc2[nH]ccc12 [Example 234, 2-fluoro-6-[(2-{[2-(2-fluoroethyl)-6-(methyloxy)-1,2,3,4-tetrahydro-7-isoquinolinyl]amino}-1H-pyrrolo[2,3-d]pyrimidin-4-yl)amino]-N-methylbenzamide] | 8.40 to 8.90 | 5.01 to 200 | 9.00 to 9.60
COc1cc2c(cc1Nc1nc(Nc3cccc4c3C(=O)NC4)c3cc[nH]c3n1)N(C(=O)CN1CCCC1)CCC2 [Example 201, 7-[(2-{[6-(methyloxy)-1-(1-pyrrolidinylacetyl)-1,2,3,4-tetrahydro-7-quinolinyl]amino}-1H-pyrrolo[2,3-d]pyrimidin-4-yl)amino]-2,3-dihydro-1H-isoindol-1-one] | 9.00 to 9.60 | 0.251 to 1 | 9.00 to 9.60
CNC(=O)c1ccccc1Nc1nc(Nc2cc3c(cc2OC)CCN3C(=O)CN(C)C)nc2[nH]ccc12 [Example 241, 2-[(2-{[1-(N,N-dimethylglycyl)-5-(methyloxy)-2,3-dihydro-1H-indol-6-yl]amino}-1H-pyrrolo[2,3-d]pyrimidin-4-yl)amino]-N-methylbenzamide] | – | – | 6.70 to 8.30
CCCN1CCC=C(c2ccc(Nc3nc(Nc4ccc(C)cc4C(N)=O)c4cc[nH]c4n3)c(C)c2)C1 [Example 32, 5-methyl-2-[(2-{[2-methyl-4-(1-propyl-1,2,5,6-tetrahydro-3-pyridinyl)phenyl]amino}-1H-pyrrolo[2,3-d]pyrimidin-4-yl)amino]benzamide] | 8.40 to 8.90 | 1.26 to 3.98 | 8.40 to 8.90
CCCN1CCC=C(c2ccc(Nc3nc(Nc4ccc(OC)cc4C(N)=O)c4cc[nH]c4n3)c(C)c2)C1 [Example 37, 5-(methyloxy)-2-[(2-{[2-methyl-4-(1-propyl-1,2,5,6-tetrahydro-3-pyridinyl)phenyl]amino}-1H-pyrrolo[2,3-d]pyrimidin-4-yl)amino]benzamide] | – | 5.01 to 200 | 8.40 to 8.90
CNC(=O)c1c(F)cccc1Nc1nc(Nc2cc3c(cc2OC)CCN3C(=O)CN2CCCC(O)C2)nc2[nH]ccc12 (centres unmarked) [Example 184, 2-fluoro-6-[(2-{[1-[(3-hydroxy-1-piperidinyl)acetyl]-5-(methyloxy)-2,3-dihydro-1H-indol-6-yl]amino}-1H-pyrrolo[2,3-d]pyrimidin-4-yl)amino]-N-methylbenzamide] | – | – | 8.40 to 8.90
